# pIC50: −log10 of the molar value.
# Target: human PAD4 (hPAD4) (Homo sapiens (Human), UniProt Q9UM07)
# Assay: RFMS Human PAD4 Functional Assay 1
# Format: biochemical
# Conditions: RFMS assay 1; 5 nM hPAD4, 250 μM BAEE substrate, 50 μM calcium, 37° C.
# In short: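 Recombinant hPAD4 (5 nM) was preincubated with compound (top 50 μM, 0.5% DMSO) for 30 min at 37 °C, then reacted with 250 μM BAEE for 90 min at 37 °C in pH 7.5 HEPES buffer with 50 μM calcium and 5 μM TPEN. Product was derivatized with phenyl glyoxal and quantified by RapidFire MS.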
# Chain of human PAD4 (hPAD4) (Q9UM07 whole entry): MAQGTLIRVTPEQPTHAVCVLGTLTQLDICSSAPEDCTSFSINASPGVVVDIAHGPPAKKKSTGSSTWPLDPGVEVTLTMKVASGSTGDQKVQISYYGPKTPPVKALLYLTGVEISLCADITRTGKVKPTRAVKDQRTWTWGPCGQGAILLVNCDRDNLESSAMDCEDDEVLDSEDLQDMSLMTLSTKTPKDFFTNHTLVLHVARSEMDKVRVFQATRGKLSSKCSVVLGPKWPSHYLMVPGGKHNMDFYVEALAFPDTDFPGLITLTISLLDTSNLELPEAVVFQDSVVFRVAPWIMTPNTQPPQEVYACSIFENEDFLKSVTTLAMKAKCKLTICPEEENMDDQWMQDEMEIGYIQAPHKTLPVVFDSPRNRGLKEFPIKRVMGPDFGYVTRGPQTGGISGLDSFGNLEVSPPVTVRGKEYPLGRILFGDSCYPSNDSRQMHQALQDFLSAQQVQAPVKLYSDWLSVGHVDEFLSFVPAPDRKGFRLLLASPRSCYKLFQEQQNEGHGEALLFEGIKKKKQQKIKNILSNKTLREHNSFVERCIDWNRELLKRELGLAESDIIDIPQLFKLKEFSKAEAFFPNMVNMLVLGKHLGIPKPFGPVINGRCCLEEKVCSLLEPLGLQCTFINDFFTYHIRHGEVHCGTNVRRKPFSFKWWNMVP
row,Compound,pIC50
1,"COCC1CN(c2ccc3cc(-c4nn5cc(C(=O)N6C[C@H](N)C[C@@H](F)C6)cc(OC)c5c4C)n(CC4CC4)c3c2)C1 [Example 33, ((3R,5R)-3-Amino-5-fluoropiperidin-1-yl)(2-(1-(cyclopropylmethyl)-6-(3-(methoxymethyl)-azetidin-1-yl)-1H-indol-2-yl)-4-methoxy-3-methylpyrazolo[1,5-a]pyridin-6-yl)methanone]",6.27
2,"COc1cc(C(=O)N2C[C@H](N)C[C@@H](F)C2)cn2nc(-c3cc4ccc(N5CCC(OC)CC5)cc4n3CC3CC3)c(C)c12 [Example 35, ((3R,5R)-3-Amino-5-fluoropiperidin-1-yl)(2-(1-(cyclopropylmethyl)-6-(4-methoxypiperidin-1-yl)-1H-indol-2-yl)-4-methoxy-3-methylpyrazolo[1,5-a]pyridin-6-yl)methanone]",6.86
3,"COc1cc(C(=O)N2C[C@H](N)C[C@@H](F)C2)cn2nc(-c3cc4ccc(NC[C@@H](F)C(C)(C)O)cc4n3CC3CC3)c(C)c12 [Example 36, ((3R,5R)-3-Amino-5-fluoropiperidin-1-yl)(2-(1-(cyclopropylmethyl)-6-(((R)-2-fluoro-3-hydroxy-3-methylbutyl)amino)-1H-indol-2-yl)-4-methoxy-3-methylpyrazolo[1,5-a]pyridin-6-yl)methanone]",6.11
4,"COc1cc(C(=O)N2C[C@H](N)C[C@@H](F)C2)cn2nc(-c3cc4ccc(N5CC(F)(CO)C5)cc4n3CC3CC3)c(C)c12 [Example 37, ((3R,5R)-3-Amino-5-fluoropiperidin-1-yl)(2-(1-(cyclopropylmethyl)-6-(3-fluoro-3-(hydroxymethyl)azetidin-1-yl)-1H-indol-2-yl)-4-methoxy-3-methylpyrazolo[1,5-a]pyridin-6-yl)methanone]",5.44
5,"Cc1c(-c2cc3cccnc3n2CC2CC2)nn2cc(C(=O)N3CC4CCC3[C@@H]4N)cc(F)c12 (stereo partly drawn) [Example 38, ((7R)-7-Amino-2-azabicyclo[2.2.1]heptan-2-yl)(2-(1-(cyclopropylmethyl)-1H-pyrrolo[2,3-b]pyridin-2-yl)-4-fluoro-3-methylpyrazolo[1,5-a]pyridin-6-yl)methanone]",6.80
6,"Cc1c(-c2cc3ccc(Cl)nc3n2CC2CC2)nn2cc(C(=O)N3CC4CCC3[C@@H]4N)cc(F)c12 (stereo partly drawn) [Example 39, ((7R)-7-Amino-2-azabicyclo[2.2.1]heptan-2-yl)(2-(6-chloro-1-(cyclopropylmethyl)-1H-pyrrolo[2,3-b]pyridin-2-yl)-4-fluoro-3-methylpyrazolo[1,5-a]pyridin-6-yl)methanone]",7.06
7,"Cc1ccc2cc(-c3nn4cc(C(=O)N5CC6CCC5[C@@H]6N)cc(F)c4c3C)n(CC3CC3)c2n1 (stereo partly drawn) [Example 40, 3((7R)-7-Amino-2-azabicyclo[2.2.1]heptan-2-yl)(2-(1-(cyclopropylmethyl)-6-methyl-1H-pyrrolo[2,3-b]pyridin-2-yl)-4-fluoro-3-methylpyrazolo[1,5-a]pyridin-6-yl)methanone]",7.60
8,"Cc1c(-c2cc3ccc(C4CC4)nc3n2CC2CC2)nn2cc(C(=O)N3CC4CCC3[C@@H]4N)cc(F)c12 (stereo partly drawn) [Example 41, ((7R)-7-Amino-2-azabicyclo[2.2.1]heptan-2-yl)(2-(6-cyclopropyl-1-(cyclopropylmethyl)-1H-pyrrolo[2,3-b]pyridin-2-yl)-4-fluoro-3-methylpyrazolo[1,5-a]pyridin-6-yl)methanone]",7.07
9,"Cc1c(-c2cc3ccc(-c4ccc5c(c4)CNC5=O)nc3n2CC2CC2)nn2cc(C(=O)N3CC4CCC3[C@@H]4N)cc(F)c12 (stereo partly drawn) [Example 42, 5-(2-(6-((7R)-7-Amino-2-azabicyclo[2.2.1]heptane-2-carbonyl)-4-fluoro-3-methylpyrazolo[1,5-a]pyridin-2-yl)-1-(cyclopropylmethyl)-1H-pyrrolo[2,3-b]pyridin-6-yl)isoindolin-1-one]",8.05
10,"Cc1c(-c2cc3ccc(-c4ccn5c(C)nnc5c4)nc3n2CC2CC2)nn2cc(C(=O)N3CC4CCC3[C@@H]4N)cc(F)c12 (stereo partly drawn) [Example 43, ((7R)-7-Amino-2-azabicyclo[2.2.1]heptan-2-yl)(2-(1-(cyclopropylmethyl)-6-(3-methyl-[1,2,4]triazolo[4,3-a]pyridin-7-yl)-1H-pyrrolo[2,3-b]pyridin-2-yl)-4-fluoro-3-methylpyrazolo[1,5-a]pyridin-6-yl)methanone]",6.82
11,"COc1cc(-c2ccc3cc(-c4nn5cc(C(=O)N6CC7CCC6[C@@H]7N)cc(F)c5c4C)n(CC4CC4)c3n2)c(F)cn1 (stereo partly drawn) [Example 45, ((7R)-7-Amino-2-azabicyclo[2.2.1]heptan-2-yl)(2-(1-(cyclopropylmethyl)-6-(5-fluoro-2-methoxypyridin-4-yl)-1H-pyrrolo[2,3-b]pyridin-2-yl)-4-fluoro-3-methylpyrazolo[1,5-a]pyridin-6-yl)methanone]",7.00
12,"Cc1c(-c2cc3ccc(-c4ccc5c(c4)C(=O)NC5)nc3n2CC2CC2)nn2cc(C(=O)N3CC4CCC3[C@@H]4N)cc(F)c12 (stereo partly drawn) [Example 46, 6-(2-(6-((7R)-7-Amino-2-azabicyclo[2.2.1]heptane-2-carbonyl)-4-fluoro-3-methylpyrazolo[1,5-a]pyridin-2-yl)-1-(cyclopropylmethyl)-1H-pyrrolo[2,3-b]pyridin-6-yl)isoindolin-1-one]",7.39
13,"Cc1c(-c2cc3ccc(-c4ccc(O)c(F)c4)nc3n2CC2CC2)nn2cc(C(=O)N3CC4CCC3[C@@H]4N)cc(F)c12 (stereo partly drawn) [Example 48, ((7R)-7-Amino-2-azabicyclo[2.2.1]heptan-2-yl)(2-(1-(cyclopropylmethyl)-6-(3-fluoro-4-hydroxyphenyl)-1H-pyrrolo[2,3-b]pyridin-2-yl)-4-fluoro-3-methylpyrazolo[1,5-a]pyridin-6-yl)methanone]",6.49
14,"Cc1c(-c2cc3ccc(-c4cccc(O)c4F)nc3n2CC2CC2)nn2cc(C(=O)N3CC4CCC3[C@@H]4N)cc(F)c12 (stereo partly drawn) [Example 49, ((7R)-7-Amino-2-azabicyclo[2.2.1]heptan-2-yl)(2-(1-(cyclopropylmethyl)-6-(2-fluoro-3-hydroxyphenyl)-1H-pyrrolo[2,3-b]pyridin-2-yl)-4-fluoro-3-methylpyrazolo[1,5-a]pyridin-6-yl)methanone]",7.44
15,Cc1c(-c2cc3ccc(N4CCC[C@@H](O)C4)nc3n2CC2CC2)nn2cc(C(=O)N3CC4CCC3[C@@H]4N)cc(F)c12 (some centres unmarked) [Example 51],6.96
16,"Cc1c(-c2cc3ccc(Cl)nc3n2CC2CC2)nn2cc(C(=O)N3C[C@H](N)C[C@@H](F)C3)cc(F)c12 [Example 53, ((3R,5R)-3-Amino-5-fluoropiperidin-1-yl)(2-(6-chloro-1-(cyclopropylmethyl)-1H-pyrrolo[2,3-b]pyridin-2-yl)-4-fluoro-3-methylpyrazolo[1,5-a]pyridin-6-yl)methanone]",6.35

# Results, then the compound that gave them:
row,pIC50,Compound
1,7.19,"COc1cc(C(=O)N2C[C@H](N)C[C@@H](F)C2)cn2nc(-c3cc4ccc(-c5ccn6c(C)nnc6c5)cc4n3CC3CC3)c(C)c12 [Example 31, ((3R,5R)-3-Amino-5-fluoropiperidin-1-yl)(2-(1-(cyclopropylmethyl)-6-(3-methyl-[1,2,4]triazolo[4,3-a]pyridin-7-yl)-1H-indol-2-yl)-4-methoxy-3-methylpyrazolo[1,5-a]pyridin-6-yl)methanone]"
2,6.38,"COc1cc(C(=O)N2C[C@H](N)C[C@@H](F)C2)cn2nc(-c3cc4ccc(-c5cccc(O)c5F)cc4n3CC3CC3)c(C)c12 [Example 32, ((3R,5R)-3-Amino-5-fluoropiperidin-1-yl)(2-(1-(cyclopropylmethyl)-6-(2-fluoro-3-hydroxyphenyl)-1H-indol-2-yl)-4-methoxy-3-methylpyrazolo[1,5-a]pyridin-6-yl)methanone]"
3,7.38,"COc1cc(C(=O)N2C[C@H](N)C[C@@H](F)C2)cn2nc(-c3cc4ccc(N5C[C@H](N)C[C@@H](F)C5)cc4n3CC3CC3)c(C)c12 [Example 34, ((3R,5R)-3-Amino-5-fluoropiperidin-1-yl)(2-(6-((3R,5R)-3-amino-5-fluoropiperidin-1-yl)-1-(cyclopropylmethyl)-1H-indol-2-yl)-4-methoxy-3-methylpyrazolo[1,5-a]pyridin-6-yl)methanone]"
4,5.83,"Cc1c(-c2cc3ccc(-c4ccc(OC(F)F)c(F)c4)nc3n2CC2CC2)nn2cc(C(=O)N3CC4CCC3[C@@H]4N)cc(F)c12 (stereo partly drawn) [Example 44, ((7R)-7-Amino-2-azabicyclo[2.2.1]heptan-2-yl)(2-(1-(cyclopropylmethyl)-6-(4-(difluoromethoxy)-3-fluorophenyl)-1H-pyrrolo[2,3-b]pyridin-2-yl)-4-fluoro-3-methylpyrazolo[1,5-a]pyridin-6-yl)methanone]"
5,5.83,"Cc1c(-c2cc3ccc(-c4ccc(OC(F)F)cc4)nc3n2CC2CC2)nn2cc(C(=O)N3CC4CCC3[C@@H]4N)cc(F)c12 (stereo partly drawn) [Example 47, ((7R)-7-Amino-2-azabicyclo[2.2.1]heptan-2-yl)(2-(1-(cyclopropylmethyl)-6-(4-(difluoromethoxy)phenyl)-1H-pyrrolo[2,3-b]pyridin-2-yl)-4-fluoro-3-methylpyrazolo[1,5-a]pyridin-6-yl)methanone]"
6,7.13,"COC1CN(c2ccc3cc(-c4nn5cc(C(=O)N6CC7CCC6[C@@H]7N)cc(F)c5c4C)n(CC4CC4)c3n2)C1 (stereo partly drawn) [Example 50, ((7R)-7-Amino-2-azabicyclo[2.2.1]heptan-2-yl)(2-(1-(cyclopropylmethyl)-6-(3-methoxyazetidin-1-yl)-1H-pyrrolo[2,3-b]pyridin-2-yl)-4-fluoro-3-methylpyrazolo[1,5-a]pyridin-6-yl)methanone]"
7,6.05,"Cc1c(-c2cc3cccnc3n2CC2CC2)nn2cc(C(=O)N3C[C@H](N)C[C@@H](F)C3)cc(F)c12 [Example 52, ((3R,5R)-3-Amino-5-fluoropiperidin-1-yl)(2-(1-(cyclopropylmethyl)-1H-pyrrolo[2,3-b]pyridin-2-yl)-4-fluoro-3-methylpyrazolo[1,5-a]pyridin-6-yl)methanone]"

# Reference: patent US12473304B2, “Heterocyclic PAD4 inhibitors” (BRISTOL-MYERS SQUIBB COMPANY, priority 2020, dated 2025)
